# Laboratory results as given in ChEMBL document CHEMBL2046425, “Neamphamide B, new cyclic depsipeptide, as an anti-dormant mycobacterial substance from a Japanese marine sponge of Neamphius sp” (2012).
# Assays:
# [1] = system: Mycolicibacterium smegmatis; assay: Antimicrobial activity against Mycobacterium smegmatis under dormancy-inducing hypoxic condition for 96 hrs by MTT assay; type: functional
# [2] = system: Mycolicibacterium smegmatis; assay: Antimicrobial activity against Mycobacterium smegmatis under aerobic condition for 36 hrs by MTT assay; type: functional
smiles,measurement,setting,value
COC(c1ccc(O)cc1)C1NC(=O)[C@H](CCC(N)=O)N(C)C(=O)[C@H](CC(C)C)NC(=O)[C@@H](CCCNC(=N)N)NC(=O)[C@@H]([C@@H](C)O)NC(=O)[C@H](NC(=O)C(NC(=O)[C@H](O)[C@H](O)[C@H](CCCNC(=N)N)NC(=O)[C@@H](CC(N)=O)NC(=O)C(C)C(O)C(C)CC(C)C)C(C)C(C)C(N)=O)[C@@H](C)OC(=O)[C@@H]2CCCCN2C1=O (some centres not stated) [NEAMPHAMIDE B],MIC,[1],1.56 µg/mL
same,MIC,[2],1.56 µg/mL
